Source: patent US20230277553A1, “THERAPEUTIC COMPOSITION OF CURE-PRO COMPOUNDS FOR TARGETED DEGRADATION OF BET DOMAIN PROTEINS, AND METHODS OF MAKING AND USAGE” (CORNELL UNIVERSITY, priority 2020, published 2023)
Entries after “also recorded” stand apart in the source; their conditions may differ.

Assays:
[1] = biological target: T1, BRD4 (Homo sapiens, UniProt O60885); assay: Summary of BRD4 degradation by CURE-PRO pairs, estimated from Western Blot or WES (Proteinsimple); format: cell-based; design: endogenous in cells; conditions: for Degradation of BRD4 in combination with CRBN ligand [drawing 372]: third drawing (8066); for Degradation of BRD4 in combination with CRBN ligand [drawing 407]: Table 4, aryl-boronic acid-containing CRBN ligand, first drawing (by text: 8048)
Description: A black check mark indicates efficacy of 30% to 70% or higher protein degradation.

[2] = biological target: T1, BRD4; assay: CURE-PRO-mediated BRD4 degradation, Western blot, HeLa cells; format: cell-based; design: endogenous in cells; host or cells: HeLa; conditions: 24 h, Western blot; for BRD4 degradation, co-treatment with CRBN ligand 8046: 1:1 with 8046, 10 μM each; for BRD4 degradation, co-treatment with CRBN ligand 8047: 1:1 with 8047, 10 μM each; for BRD4 degradation, co-treatment with CRBN ligand 8066: 1:1 with 8066, 10 μM each (BRD-E10: 10 and 100 μM); for BRD4 degradation, co-treatment with CRBN ligand 8048: 1:1 with 8048, 1-10 μM each; for BRD4 degradation, co-treatment with CRBN ligand 8049: 1:1 with 8049, 1-10 μM each; for BRD4 degradation, BRD ligand alone: BRD monomer alone
Procedure: All cell lines were purchased from ATCC or DSMZ and grown at 37° C. with 5% CO2. Human HeLa cells were cultured in complete growth medium (Dulbecco's modified Eagle's medium (DMEM) supplemented with 10% FBS); MCF7 cells were cultured in complete growth medium (Dulbecco's modified Eagle's medium (DMEM) supplemented with 10% FBS and 0.01 mg/ml human recombinant insulin (Sigma Aldrich); Namalwa and MOLM-13 cells were cultured in complete growth medium (RPMI 1640 medium supplemented with 10% FBS); MV-4-11 were cultured in complete growth medium (Iscove's Modified Dulbecco's medium, supplemented with 10% FBS); HCT116 cells were cultured in complete growth medium (McCoy's 5a Medium supplemented with 10% FBS). For cellular degradation of BRD4 studies, cells were seeded in a 12-well plate at 70-80% confluency, allowed to attach overnight, and incubated with the indicated compounds for the indicated time. When indicated, a 15-minute pretreatment with 10 μM pomalidomide, 10 μM VHL298, 10 μM Nutlin3a, 1 μM MG-132 or 1 μM Carfilzomib was performed before the addition of CURE-PROs. For washout studies, after CURE-PRO treatment, media was aspirated and incubated with complete medium for the indicated time before lysis.
Anti-BRD4 (13440, 1:1,000 dilution for Western Blot and 1:25 dilution for ProteinSimple); Anti-BRD2 (5848 1:1,000 dilution for Western Blot and 1:25 dilution for ProteinSimple); β-Actin (3700, 1:2,000 dilution for Western Blot), β-Actin (4970, 1:50 dilution for ProteinSimple) anti-mouse IgG-HRP, and anti-rabbit IgG-HRP antibodies were purchased Cell Signaling Technology. Anti-GAPDH (600-401-A33, 1:100 dilution for ProteinSimple) was purchased from Rockland Immunochemicals, Inc. Anti-BRD3 (sc-81202, 1:200 dilution for Western Blot) was purchased from Santa Cruz Biotechnology.
HeLa, MCF7, or HCT116 cells (2.5-3×10^6) were treated for 24 hours with the indicated compounds solubilized in DMSO. The cells were washed in ice-cold PBS and were then lysed in RIPA lysis buffer (150 mM NaCl, 5 mM EDTA, 1% NP-40, 0.5% sodium deoxycholate, 0.1% SDS, 50 mM Tris, pH 8.0.) with Roche protease inhibitor complete cocktail and phosphatase inhibitors (10 mM sodium fluoride, 10 mM sodium pyrophosphate, 1 mM sodium orthovanadate and 20 mM β-glycerophosphate). The total protein concentrations were determined by Bradford Protein Assay and 10-20 μg of protein was loaded onto 4-15% Tris-Glycine gradient gels (Biorad). After standard gel electrophoresis, the separated proteins were transferred to PVDF membrane by wet transfer. The immunoblots were then blocked for 1 hour in 5% skim milk in TBST or 5% BSA in TBST, according to manufacturer's instructions, before an overnight incubation at 4° C. with indicated antibodies and membranes. Membranes were then incubated with the appropriate horseradish peroxidase-conjugated secondary antibodies (1:5,000 dilution) for 1 h at room temperature and the bands were visualized using the Clarity Max Western ECL Substrate (Biorad) and the ChemiDoc Imaging System (Biorad). Signal was detected with ECL Western Blotting Substrate (Pierce) and X-ray film processed with a Konica SRX-101 X-ray film processor or captured by Bio-Rad's Chemidoc Imaging system.
HeLa cells (2.5×106) were treated for 24 hours with the sample compounds solubilized in DMSO. Compounds were added at 1-10 μM each. Standardized protein samples were electrophoresed and imaged as described in the immunoblotting description above. FIGS. 6-18 depicts the CURE-PRO-mediated BRD4 degradation for BRD monomers (JQ1 derivatives comprising of catechol linkers), and CRBN ligands, 8048 and 8049 (pomalidomide derivatives comprising boronic acid linkers) combined in a 1:1 ratio.
HeLa cells (2.5×106) were treated for 24 hours with the compounds solubilized in DMSO. The compounds were added at 10 μM each. Standardized protein samples were electrophoresed and imaged as described in the immunoblotting section above. […]

Row | SMILES | Degradation of BRD4 in combination with CRBN ligand [drawing 372] ([1]; Table 1, CRBN ligand) | BRD4 degradation, co-treatment with CRBN ligand 8046 [2] | BRD4 degradation, co-treatment with CRBN ligand 8047 [2] | BRD4 degradation, co-treatment with CRBN ligand 8066 [2] | Degradation of BRD4 in combination with CRBN ligand [drawing 407] [1] | BRD4 degradation, co-treatment with CRBN ligand 8048 [2] | BRD4 degradation, co-treatment with CRBN ligand 8049 [2] | BRD4 degradation, BRD ligand alone [2] | further results
1 | CCNC(=O)C[C@@H]1N=C(c2ccc(Cl)cc2)c2cc(OCCOCCOCCOCCNC(=O)c3ccc(B(O)O)cc3)ccc2-n2c(C)nnc21 [BRD-E43] | ✓ (A black check mark indicates efficacy of 30% to 70% or higher protein degradation) | but not 8046 | causes degradation of BRD4 | causes degradation of BRD4; also recorded: Degradation is noted | – | – | – | – | Degradation of BRD4 in combination with CRBN ligand [drawing 371] ([1]; Table 1, CRBN ligand, second drawing (8047)): ✓ (A black check mark indicates efficacy of 30% to 70% or higher protein degradation)
2 | COc1ccc2c(c1)C(c1ccc(Cl)cc1)=N[C@@H](CC(=O)NCCOCCOCCNC(=O)c1ccc(B(O)O)cc1)c1nnc(C)n1-2 [BRD-E45] | ✓ (A black check mark indicates efficacy of 30% to 70% or higher protein degradation) | – | – | causes degradation of BRD4 | – | – | – | – | Degradation of BRD4 in combination with VHL ligand [drawing 397] ([1]; Table 3, aromatic 1,2-diol-containing VHL ligand, second drawing (8305)): ✓ (A black check mark indicates efficacy of 30% to 70% or higher protein degradation)
3 | CCNC(=O)C[C@@H]1N=C(c2ccc(Cl)cc2)c2cc(OCCCCC(=O)Nc3ccc(O)c(O)c3)ccc2-n2c(C)nnc21 [BRD-N22, 5-(((4S)-6-(4-chlorophenyl)-4-(2-(ethylamino)-2-oxoethyl)-1-methyl-4H-benzo[f][1,2,4]triazolo[4,3-a][1,4]diazepin-8-yl)oxy)-N-(3,4-dihydroxyphenyl)pentanamide] | – | – | – | – | ✓ (A black check mark indicates efficacy of 30% to 70% or higher protein degradation) | causes degradation of BRD4; also recorded: Degradation is noted | no evidence of BRD4 degradation | no degradation of BRD4 | –
4 | COc1ccc2c(c1)C(c1ccc(Cl)cc1)=N[C@@H](CC(=O)Nc1ccc(B(O)O)cc1)c1nnc(C)n1-2 [BRD-E74, (4-(2-((4S)-6-(4-chlorophenyl)-8-methoxy-1-methyl-4H-benzo[f][1,2,4]triazolo[4,3-a][1,4]diazepin-4-yl)acetamido)phenyl)boronic acid] | – | causes degradation of BRD4 | causes degradation of BRD4 | – | – | – | – | – | Degradation of BRD4 in combination with CRBN ligand [drawing 370] ([1]; Table 1, aromatic 1,2-diol- or hindered cis-1,2-diol-containing CRBN ligand, first drawing (8046)): ✓ (A black check mark indicates efficacy of 30% to 70% or higher protein degradation)
5 | COc1ccc2c(c1)C(c1ccc(Cl)cc1)=N[C@@H](CC(=O)NCCOCCOCCOCCNC(=O)c1ccc(O)c(O)c1)c1nnc(C)n1-2 [BRD-N44] | – | – | – | – | ✓ (A black check mark indicates efficacy of 30% to 70% or higher protein degradation) | causes degradation of BRD4 | – | no degradation of BRD4 | –
6 | COc1ccc2c(c1)C(c1ccc(Cl)cc1)=N[C@@H](CC(=O)NCCCCNC(=O)c1cccc(O)c1O)c1nnc(C)n1-2 [BRD-N6] | – | – | – | – | ✓ (A black check mark indicates efficacy of 30% to 70% or higher protein degradation) | causes degradation of BRD4; also recorded: Degradation is noted | no evidence of BRD4 degradation | no degradation of BRD4 | –
